Laboratory results as given in patent US11602540B2, “Method for stimulating blood flow in a penile region of a patient” (BMR MEDICAL LLC, priority 2016, dated 2023).

Assay: treatment of diffuse plaque by carbon dioxide injection into affected corpus tissues
Type: in vivo, patient
Details: injection directly into affected corpus tissues
Text: In addition to the above treatment method embodiments, Applicants have discovered that injection(s) of carbon dioxide is/are also effective to treat a condition related to Peyronie's disease known as “diffuse plaque” comprising plaque that has not assimilated into any hardened singular construct within the penis, but remains in a “diffuse” state throughout. The preferred treatment method is injection(s) of carbon dioxide directly into the affected corpus tissues to treat the diffuse plaque. This form of carbon dioxide injection treatment may be continued until the diffuse plaque has been sufficiently mitigated or eliminated. Preferably, if more than one carbon dioxide injection is required, then the second injection location is optimally spaced away from the location of the first carbon dioxide injection. As above, the “dose” of each carbon dioxide injection(s) is considered to be “therapeutically effective” which is defined as described above in conjunction with “carboxy therapy”.
FIG. 10 illustrates one method 900 for treating diffuse plaque using the above-described method steps. Thus, the “diffuse plaque” condition is identified or diagnosed within at least one corpus cavernosa at 902. […] After the initial round of administration/injection(s) of carbon dioxide is complete, the results may be assessed to see if the plaque is mitigated at 908. […]

SMILES: O=C=O [carbon dioxide]
- effectiveness in treating diffuse plaque: effective
